Laboratory results from patent US6737383B1, “Herbicidal oxadiazolidines” (priority 1999, dated 2004).

Key:
giant foxtail = assay: Test B pre/postemergence giant foxtail; assay type: in vivo, Setaria faberii
How it was run: (§1)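 Herbicidal effect was estimated by eye on a ten-point control scale after plants spent twelve to sixteen days in a greenhouse following soil or foliar treatment. Foliar sprays targeted plants at one to four leaves; all doses were formulated in a non-phytotoxic solvent with surfactant.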

smallflower flatsedge = assay: Test B flood test smallflower flatsedge; assay type: in vivo, Cyperus difformis
How it was run: (§2)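 Read-out is a visual response score from 0 (no effect) to 10 (complete control), assigned by comparison with untreated controls. Treatment was applied at the 2-leaf stage, and plants stayed in the greenhouse for twelve to sixteen days before scoring.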

pigweed = assay: Test B pre/postemergence pigweed; assay type: in vivo, Amaranthus retroflexus
How it was run: as §1

velvetleaf = assay: Test B pre/postemergence velvetleaf; assay type: in vivo, Abutilon theophrasti; details: for Plant response rating, Velvetleaf: Rate 250 g/ha
How it was run: as §1

blackgrass = assay: Test B pre/postemergence blackgrass; assay type: in vivo, Alopecurus myosuroides
How it was run: as §1

cocklebur = assay: Test B pre/postemergence cocklebur; assay type: in vivo, Xanthium strumarium
How it was run: as §1

wild oat = assay: Test B pre/postemergence wild oat; assay type: in vivo, Avena fatua; details: for Plant response rating, Wild oats: Rate 250 g/ha
How it was run: as §1

purple nutsedge = assay: Test B pre/postemergence purple nutsedge; assay type: in vivo, Cyperus rotundus
How it was run: as §1

bamyardgrass = assay: Test B flood test barnyardgrass; assay type: in vivo, Echinochloa crus-galli
How it was run: as §2

sugar beet = assay: Test B pre/postemergence sugar beet; assay type: in vivo, Beta vulgaris; details: for Plant response rating, Sugarbeets: Rate 250 g/ha
How it was run: as §1

surinam grass = assay: Test B pre/postemergence surinam grass; assay type: in vivo, Brachiaria decumbens
How it was run: as §1

soybean = assay: Test B pre/postemergence soybean; assay type: in vivo, Glycine max
How it was run: as §1

rice = assay: Test B flood test rice; assay type: in vivo, Oryza sativa
How it was run: as §2

crabgrass = assay: Test B pre/postemergence crabgrass; assay type: in vivo, Digitaria sanguinalis
How it was run: as §1

corn = assay: Test B pre/postemergence corn; assay type: in vivo, Zea mays
How it was run: as §1

bedstraw = assay: Test B pre/postemergence bedstraw; assay type: in vivo, Galium aparine
How it was run: as §1

[1] = Postemergence, Rate 125 g/ha, scale of 0 to 10 where 0 is no effect and 10 is complete control
[2] = Postemergence, Rate 250 g/ha, scale 0 to 10, 0 no effect, 10 complete control
[3] = Preemergence, Rate 62 g/ha, scale 0 to 10 (0 no effect, 10 complete control)
[4] = Preemergence, Rate 125 g/ha, scale 0 to 10 (0 no effect, 10 complete control)
[5] = Preemergence, Rate 250 g/ha, scale of 0 to 10 where 0 is no effect and 10 is complete control
[6] = Preemergence, Rate 500 g/ha, scale 0 to 10 (0 no effect, 10 complete control)
[7] = Rate 62 g/ha, Postemergence, scale of 0 to 10 where 0 is no effect and 10 is complete control
[8] = Rate 500 g/ha, Postemergence, scale 0 to 10, 0 no effect, 10 complete control
[9] = Postemergence (flood test species), Rate 125 g/ha, scale of 0 to 10 where 0 is no effect and 10 is complete control
[10] = Rate 62 g/ha, Postemergence section, flood test species, scale of 0 to 10 where 0 is no effect and 10 is complete control
[11] = Rate 250 g/ha, Postemergence (flood test), scale 0 to 10, 0 is no effect, 10 is complete control
[12] = Rate 250 g/ha, headed Pre-emergence (flood test species), scale 0 to 10 (0 no effect, 10 complete control)
[13] = Rate 500 g/ha, headed Pre-emergence (flood test species), scale 0 to 10 (0 no effect, 10 complete control)
[14] = Rate 500 g/ha, listed under Postemergence (flood test species), scale 0 to 10, 0 no effect, 10 complete control
[15] = Rate 2000 g/ha, Pre-emergence (as headed), scale 0 to 10
[16] = Rate 250 g/ha, Postemergence, scale 0 to 10, 0 is no effect, 10 is complete control
[17] = Preemergence, Rate 125 g/ha, 0 is no effect, 10 is complete control
[18] = Preemergence, scale of 0 to 10 where 0 is no effect and 10 is complete control
[19] = Postemergence, scale 0 to 10, 0 is no effect, 10 is complete control
[20] = Postemergence, Rate 62 g/ha, scale 0 to 10, 0 is no effect, 10 is complete control
[21] = Rate 1000 g/ha, Pre-emergence (as headed), scale 0 to 10
[22] = Rate 125 g/ha, Postemergence, scale 0 to 10, 0 no effect, 10 complete control

C=CCn1c(=O)on(C(=O)N(c2ccc(Cl)cc2)C(C)C)c1=O [Compound 105]
4: Velvetleaf plant response rating (0 to 10 scale) (velvetleaf; [17]) | Velvetleaf plant response rating (velvetleaf; [8]) | Cocklebur plant response rating (cocklebur; [8]) | Wild oats plant response rating (wild oat; [8]) | Plant response rating, Sugarbeets (sugar beet; [18])
8: Giant foxtail plant response rating (giant foxtail; [8]) | Plant response rating, Blackgrass (blackgrass; [5]) | Blackgrass plant response rating (blackgrass; [8]) | Plant response rating, Crabgrass (crabgrass; [4]) | Plant response rating, Crabgrass (crabgrass; [5])
5: Plant response rating, Velvetleaf (velvetleaf; [18]) | Blackgrass plant response rating (blackgrass; [3]) | Plant response rating, B. signalgrass (surinam grass; [5]) | Bedstraw plant response rating (bedstraw; [6])
2: Giant foxtail plant response rating (giant foxtail; [7]) | Blackgrass plant response rating (blackgrass; [7]) | Wild oats plant response rating (wild oat; [3]) | Plant response rating, Wild oats (wild oat; [19]) | Nutsedge plant response rating (purple nutsedge; [8]) | B. signalgrass plant response rating (surinam grass; [22]) | Crabgrass plant response rating (crabgrass; [3]) | Plant response rating, Corn (corn; [5]) | Corn plant response rating (corn; [8]) | Bedstraw plant response rating (bedstraw; [2])
0: S. Flatsedge plant response rating (smallflower flatsedge; [9]) | S. Flatsedge plant response rating (smallflower flatsedge; Pre-emergence, Rate 1000 g/ha, scale 0 to 10 (0 no effect, 10 complete control)) | S. Flatsedge plant response rating (smallflower flatsedge; [10]) | Plant response rating, S. Flatsedge (smallflower flatsedge; [11]) | S. Flatsedge plant response rating (smallflower flatsedge; [12]) | Plant response rating, S. Flatsedge (smallflower flatsedge; [13]) | S. Flatsedge plant response rating (smallflower flatsedge; [14]) | S. Flatsedge plant response rating (smallflower flatsedge; [15]) | Redroot pigweed plant response rating (pigweed; [1]) | Redroot pigweed plant response rating (pigweed; [3]) | Redroot pigweed plant response rating (pigweed; [7]) | Plant response rating, Redroot pigweed (pigweed; [16]) | Velvetleaf plant response rating (velvetleaf; [1]) | Velvetleaf plant response rating (velvetleaf; [3]) | Velvetleaf plant response rating (velvetleaf; [7]) | Cocklebur plant response rating (cocklebur; [1]) | Cocklebur plant response rating (cocklebur; [3]) | Plant response rating, Cocklebur (cocklebur; [4]) | Plant response rating, Cocklebur (cocklebur; [5]) | Cocklebur plant response rating (cocklebur; [6]) | Cocklebur plant response rating (cocklebur; [7]) | Wild oats plant response rating (wild oat; [1]) | Wild oats plant response rating (wild oat; [7]) | Nutsedge plant response rating (purple nutsedge; [1]) | Nutsedge plant response rating (purple nutsedge; [2]) | Nutsedge plant response rating (purple nutsedge; [3]) | Plant response rating, Nutsedge (purple nutsedge; [4]) | Plant response rating, Nutsedge (purple nutsedge; [5]) | Nutsedge plant response rating (purple nutsedge; [6]) | Nutsedge plant response rating (purple nutsedge; [7]) | Barnyardgrass plant response rating (bamyardgrass; [20]) | Barnyardgrass plant response rating (bamyardgrass; Rate 125 g/ha, Postemergence section (flood test species), scale 0 to 10, 0 no effect, 10 complete control) | Barnyardgrass plant response rating (bamyardgrass; [12]) | Plant response rating, Barnyardgrass (bamyardgrass; [13]) | Barnyardgrass plant response rating (bamyardgrass; [14]) | Barnyardgrass plant response rating (bamyardgrass; [21]) | Barnyardgrass plant response rating (bamyardgrass; Rate 2000 g/ha, Pre-emergence (as headed), scale 0 to 10, 0 no effect, 10 complete control) | Barnyardgrass plant response rating (bamyardgrass; flood test, listed under Postemergence, Rate 250 g/ha, scale 0 to 10, 0 no effect, 10 complete control) | Sugarbeets plant response rating (sugar beet; [1]) | Sugarbeets plant response rating (sugar beet; [3]) | Sugarbeets plant response rating (sugar beet; [7]) | Plant response rating, Sugarbeets (sugar beet; [19]) | Sugarbeets plant response rating (sugar beet; [8]) | B. signalgrass plant response rating (surinam grass; [20]) | B. signalgrass plant response rating (surinam grass; [3]) | Soybean plant response rating (soybean; [3]) | Plant response rating, Soybean (soybean; [4]) | Plant response rating, Soybean (soybean; [5]) | Soybean plant response rating (soybean; [6]) | Rice plant response rating (rice; [9]) | Rice plant response rating (rice; [10]) | Plant response rating, Rice (rice; [11]) | Rice plant response rating (rice; [12]) | Plant response rating, Rice (rice; [13]) | Rice plant response rating (rice; [14]) | Rice plant response rating (rice; [21]) | Rice plant response rating (rice; [15]) | Corn plant response rating (corn; [1]) | Corn plant response rating (corn; [2]) | Corn plant response rating (corn; [3]) | Plant response rating, Corn (corn; [4]) | Corn plant response rating (corn; [7]) | Bedstraw plant response rating (bedstraw; [20]) | Bedstraw plant response rating (bedstraw; [3]) | Plant response rating, Bedstraw (bedstraw; [4]) | Plant response rating, Bedstraw (bedstraw; [5]) | Bedstraw plant response rating (bedstraw; [22])
9: Plant response rating, Redroot pigweed (pigweed; [5]) | Wild oats plant response rating (wild oat; [6]) | Sugarbeets plant response rating (sugar beet; [6]) | Crabgrass plant response rating (crabgrass; [6]) | Crabgrass plant response rating (crabgrass; [8])
1: Cocklebur plant response rating (cocklebur; [2]) | Sugarbeets plant response rating (0 to 10 scale) (sugar beet; [17]) | Plant response rating, B. signalgrass (surinam grass; [4]) | Soybean plant response rating (soybean; [1]) | Soybean plant response rating (soybean; [7])
10: Giant foxtail plant response rating (giant foxtail; [3]) | Plant response rating, Giant foxtail (giant foxtail; [4]) | Plant response rating, Giant foxtail (giant foxtail; [5]) | Giant foxtail plant response rating (giant foxtail; [6]) | Redroot pigweed plant response rating (pigweed; [6]) | Blackgrass plant response rating (blackgrass; [6]) | B. signalgrass plant response rating (surinam grass; [6])
6: Velvetleaf plant response rating (velvetleaf; [6]) | Blackgrass plant response rating (blackgrass; [1]) | Soybean plant response rating (soybean; [8])
7: Giant foxtail plant response rating (giant foxtail; [2]) | Blackgrass plant response rating (blackgrass; [2]) | Plant response rating, Blackgrass (blackgrass; [4]) | Crabgrass plant response rating (crabgrass; [1]) | Crabgrass plant response rating (crabgrass; [2])
3: Giant foxtail plant response rating (giant foxtail; [1]) | Plant response rating, Redroot pigweed (pigweed; [4]) | Redroot pigweed plant response rating (pigweed; [8]) | Plant response rating, Velvetleaf (velvetleaf; [19]) | Wild oats plant response rating (0 to 10 scale) (wild oat; [17]) | Plant response rating, Wild oats (wild oat; [18]) | B. signalgrass plant response rating (surinam grass; [2]) | B. signalgrass plant response rating (surinam grass; Rate 500 g/ha, Postemergence, scale of 0 to 10 where 0 is no effect and 10 is complete control) | Plant response rating, Soybean (soybean; [16]) | Corn plant response rating (corn; [6]) | Bedstraw plant response rating (bedstraw; [8])
